“Also recorded” adds a separate entry of the source.
Tests used:
[1] = tested on: multifunction oxidase (MFO) enzymes; conditions: cited from earlier work
[2] = cited from earlier work
animals = conditions: prior art; cited from earlier work
Culex fatigans larvae = assay: Toxicity to Culex mosquito larvae; assay type: in vivo
Protocol: (§1) The compounds of the present invention were tested for insecticidal activity by standard methods, and compared with the insecticidal activities of DDT and symmetrical analogs of DDT, such as methoxychlor. Toxicological methods for the determination of the topical LD50 values to adult female SNAIDM and PSR houseflies, Musca domestica L. and to Phormia regina, and LC50 values to clex pipiens quinquefas ciatus Say, and Anopheles albimanus Weid mosquitoes were described by Metcalf et al., 44 Bull. World Health Org. 363 (1971). The methods for evaluation of metabolism by mouse liver homogenate and by female RSP housefly and salt-marsh caterpillar larvae Estigmene acrea Drury, were described by Metcalf et al., 5 J. Environ. Sci. Tech. 709 (1971).

Musca domestica SNAIDM = assay: Topical toxicity to adult female SNAIDM (susceptible) houseflies, alone and with piperonyl butoxide; assay type: in vivo, Musca domestica L.; conditions: for SR (synergistic ratio), Musca domestica SNAIDM: LD50 alone / LD50 synergized with piperonyl butoxide; for LD50: Musca domestica, alone; for LD50 / Topical LD50, Musca domestica SNAIDM, pb: SNAIDM strain, topical; for Topical LD50, Musca domestica SNAIDM, pb: synergized with piperonyl butoxide (pb)
Protocol: as §1
(§2) The synergistic ratios or SR values (LD50 alone/ LD50 synergized with piperonyl butoxide) shown in Table II indicate the role of the multifunction oxidase (MFO) in detoxifying the individual compounds. Since piperonyl butoxide serves to block the action of MFO, the synergized LD50 values express the intrinsic toxicity of the compounds. With the detoxifying action of MFO enzymes blocked, the intrinsic toxicity of the compounds can thus be measured.

Musca domestica Rsp = assay: Topical toxicity to adult female Rsp (resistant) houseflies, alone and with piperonyl butoxide; assay type: in vivo, Musca domestica L.; conditions: for SR (synergistic ratio), Musca domestica Rsp: LD50 alone / LD50 synergized with piperonyl butoxide; for LD50: Musca domestica, alone; for LD50 / Topical LD50, Musca domestica Rsp, pb: Rsp strain, topical; for Topical LD50, Musca domestica Rsp, pb: synergized with piperonyl butoxide (pb)
Protocol: as §1, §2

[3] = tested on: Anopheles albimanus larvae; assay: Toxicity to Anopheles albimanus mosquito larvae; assay type: in vivo
Protocol: as §1

mosquito larvae = assay: Toxicity to mosquito larvae (general statement); conditions: in vivo
Protocol: as §1

Phormia regina = assay: Topical toxicity to Phormia regina, alone and with piperonyl butoxide; assay type: in vivo; conditions: for LD50: Phormia regina, alone; for LD50 / Topical LD50, Phormia regina, pb: topical; for Topical LD50, Phormia regina, pb: synergized with piperonyl butoxide (pb); for SR (synergistic ratio), Phormia regina: LD50 alone / LD50 synergized with piperonyl butoxide; for toxicity to Phormia: in vivo
Protocol: as §1, §2

insects [4] = assay: General insecticidal activity (house flies, blow fly, mosquitoes and other insects); assay type: in vivo; conditions: comparison among the 9 ethers of Table II
From the text: It has been found from metabolic studies on insects, and mice, using a model ecosystem and the methods described in Kapoor, et al., 18(6) J.Agr., Food Chem. 1145 (1970), Metcalf, et al., J. Environ. Sci. Technol. 709 (1971) and also in the copending application of Metcalf et al., "Insecticidal Biodegradable Analogues of DDT", Ser. No. 147,241, filed May 26, 1971, and having a common assignee with the present application, that certain p,p'-disubstituted α-trichloromethylbenzylphenyl ethers with various substituent groups are readily attacked by multifunction oxidase (MFO) enzymes, and thus are substantially biodegradable.
as §1

insects [5] = conditions: relative to DDT where stated; cited from earlier work

Clc1ccc(C(c2ccc(Cl)cc2)C(Cl)Cl)cc1 [DDD, 1,1-dichloro-2,2-bis(p-chlorophenyl)ethane]
biodegradability / attack by MFO enzymes of prior art compounds [1]: do not function on DDT and its metabolic derivatives DDE and DDD (or TDE)

ClC(Cl)=C(c1ccc(Cl)cc1)c1ccc(Cl)cc1 [DDE, 1,1-dichloro-2,2-bis(p-chlorophenyl) ethylene]
biodegradability / attack by MFO enzymes of prior art compounds [1]: do not function on DDT and its metabolic derivatives DDE and DDD (or TDE)

Clc1ccc(C(c2ccc(Cl)cc2)C(Cl)(Cl)Cl)cc1 [DDT, 1,1, 1 trichloro-2,2-bis(p-chlorophenyl)ethane]
lipid solubility [2]: high lipid solubility
water solubility [2]: very low water solubility
accumulation in animal tissues (animals): accumulation in the fatty or lipid tissues of animals

Clc1ccc(OC(c2ccc(Cl)cc2)C(Cl)(Cl)Cl)cc1 (stereo not drawn) [I, α-trichloromethyl-p-chlorobenzyl p-chlorophenyl ether]
LC50 Culex fatigans larvae (Culex fatigans larvae): 0.035 ppm
SR (synergistic ratio), Musca domestica SNAIDM (Musca domestica SNAIDM): 1.0
LD50 (Musca domestica SNAIDM): 90 mg/kg
Topical LD50, Musca domestica SNAIDM, pb (Musca domestica SNAIDM): 90 μg per g
SR (synergistic ratio), Musca domestica Rsp (Musca domestica Rsp): > 3.6
LD50 (Musca domestica Rsp): > 500 mg/kg
Topical LD50, Musca domestica Rsp, pb (Musca domestica Rsp): 180 μg per g
LC50 Anopheles albimanus larvae [3]: 0.014 ppm
toxicity to mosquito larvae (mosquito larvae): the most toxic
LD50 (Phormia regina): > 250 mg/kg
Topical LD50, Phormia regina, pb (Phormia regina): > 250 μg per g

Cc1ccc(OC(c2ccc(C)cc2)C(Cl)(Cl)Cl)cc1 (stereo not shown) [III]
LC50 Culex fatigans larvae (Culex fatigans larvae): 0.12 ppm
SR (synergistic ratio), Musca domestica SNAIDM (Musca domestica SNAIDM): 2.9
LD50 (Musca domestica SNAIDM): 265 mg/kg
Topical LD50, Musca domestica SNAIDM, pb (Musca domestica SNAIDM): 90 μg per g
SR (synergistic ratio), Musca domestica Rsp (Musca domestica Rsp): > 3
LD50 (Musca domestica Rsp): > 500 mg/kg
Topical LD50, Musca domestica Rsp, pb (Musca domestica Rsp): 145 μg per g
LC50 Anopheles albimanus larvae [3]: 0.18 ppm
SR (synergistic ratio), Phormia regina (Phormia regina): 1.35
LD50 (Phormia regina): 135 mg/kg
Topical LD50, Phormia regina, pb (Phormia regina): 100 μg per g

CCOc1ccc(OC(c2ccc(OCC)cc2)C(Cl)(Cl)Cl)cc1 (stereo not shown) [IV]
LC50 Culex fatigans larvae (Culex fatigans larvae): 0.11 ppm
intrinsic toxicity / insecticidal effectiveness (insects [4]): highest intrinsic toxicity
SR (synergistic ratio), Musca domestica SNAIDM (Musca domestica SNAIDM): 2.1
LD50 (Musca domestica SNAIDM): 27 mg/kg
Topical LD50, Musca domestica SNAIDM, pb (Musca domestica SNAIDM): 13.0 μg per g
SR (synergistic ratio), Musca domestica Rsp (Musca domestica Rsp): 1.7
LD50 (Musca domestica Rsp): 42 mg/kg
Topical LD50, Musca domestica Rsp, pb (Musca domestica Rsp): 24.5 μg per g
LC50 Anopheles albimanus larvae [3]: 0.07 ppm
SR (synergistic ratio), Phormia regina (Phormia regina): 1.0
LD50 (Phormia regina): 16.5 mg/kg
toxicity to Phormia (Phormia regina): quite toxic to Phormia
Topical LD50, Phormia regina, pb (Phormia regina): 16.5 μg per g

COc1ccc(C(Oc2ccc(C)cc2)C(Cl)(Cl)Cl)cc1 (stereo not shown) [IX]
LC50 Culex fatigans larvae (Culex fatigans larvae): 0.65 ppm
SR (synergistic ratio), Musca domestica SNAIDM (Musca domestica SNAIDM): > 13
LD50 (Musca domestica SNAIDM): > 500 mg/kg
Topical LD50, Musca domestica SNAIDM, pb (Musca domestica SNAIDM): 39.0 μg per g
SR (synergistic ratio), Musca domestica Rsp (Musca domestica Rsp): > 4
LD50 (Musca domestica Rsp): > 500 mg/kg
Topical LD50, Musca domestica Rsp, pb (Musca domestica Rsp): 135 μg per g
LC50 Anopheles albimanus larvae [3]: > 1.0 ppm
LD50 (Phormia regina): > 250 mg/kg
Topical LD50, Phormia regina, pb (Phormia regina): > 250 μg per g

CCOc1ccc(C(Oc2ccc(Cl)cc2)C(Cl)(Cl)Cl)cc1 (stereo not drawn) [VI, α-trichloromethyl-p-ethoxybenzyl p-chlorophenyl ether]
LC50 Culex fatigans larvae (Culex fatigans larvae): 0.067 ppm
intrinsic toxicity / insecticidal effectiveness (insects [4]): highest intrinsic toxicity; also recorded: most effective insecticide generally
SR (synergistic ratio), Musca domestica SNAIDM (Musca domestica SNAIDM): 1.9
LD50 (Musca domestica SNAIDM): 18.5 mg/kg
Topical LD50, Musca domestica SNAIDM, pb (Musca domestica SNAIDM): 9.5 μg per g
housefly LD50 (Musca domestica SNAIDM; comparison among compounds of Table II): lowest LD50 values to the housefly
SR (synergistic ratio), Musca domestica Rsp (Musca domestica Rsp): 2.5
LD50 (Musca domestica Rsp): 31 mg/kg
Topical LD50, Musca domestica Rsp, pb (Musca domestica Rsp): 12.5 μg per g
LC50 Anopheles albimanus larvae [3]: 0.044 ppm
toxicity to mosquito larvae (mosquito larvae): only slightly less toxic
SR (synergistic ratio), Phormia regina (Phormia regina): 1.0
LD50 (Phormia regina): 31.2 mg/kg
toxicity to Phormia (Phormia regina): only slightly less toxic to Phormia than the p,p'-diethoxy compound IV
Topical LD50, Phormia regina, pb (Phormia regina): 31.2 μg per g

CCOc1ccc(C(Oc2ccc(C)cc2)C(Cl)(Cl)Cl)cc1 (stereo not shown) [VIII]
LC50 Culex fatigans larvae (Culex fatigans larvae): 0.18 ppm
SR (synergistic ratio), Musca domestica SNAIDM (Musca domestica SNAIDM): 3.5
LD50 (Musca domestica SNAIDM): 72.5 mg/kg
Topical LD50, Musca domestica SNAIDM, pb (Musca domestica SNAIDM): 20.5 μg per g
SR (synergistic ratio), Musca domestica Rsp (Musca domestica Rsp): 2.9
LD50 (Musca domestica Rsp): 65 mg/kg
Topical LD50, Musca domestica Rsp, pb (Musca domestica Rsp): 22.0 μg per g
LC50 Anopheles albimanus larvae [3]: 0.066 ppm
SR (synergistic ratio), Phormia regina (Phormia regina): 1.5
LD50 (Phormia regina): 46.2 mg/kg
Topical LD50, Phormia regina, pb (Phormia regina): 30.0 μg per g

CCOc1ccc(C(Oc2ccc(OC)cc2)C(Cl)(Cl)Cl)cc1 (stereo not shown) [VII]
LC50 Culex fatigans larvae (Culex fatigans larvae): 0.14 ppm
intrinsic toxicity / insecticidal effectiveness (insects [4]): highest intrinsic toxicity
SR (synergistic ratio), Musca domestica SNAIDM (Musca domestica SNAIDM): 9.0
LD50 (Musca domestica SNAIDM): 45 mg/kg
Topical LD50, Musca domestica SNAIDM, pb (Musca domestica SNAIDM): 5.0 μg per g
SR (synergistic ratio), Musca domestica Rsp (Musca domestica Rsp): 6.4
LD50 (Musca domestica Rsp): 90 mg/kg
Topical LD50, Musca domestica Rsp, pb (Musca domestica Rsp): 14.0 μg per g
LC50 Anopheles albimanus larvae [3]: 0.034 ppm
SR (synergistic ratio), Phormia regina (Phormia regina): 1.9
LD50 (Phormia regina): 30 mg/kg
toxicity to Phormia (Phormia regina): quite toxic to Phormia
Topical LD50, Phormia regina, pb (Phormia regina): 16.0 μg per g

COc1ccc(C(Oc2ccc(Cl)cc2)C(Cl)(Cl)Cl)cc1 (stereo not shown) [V]
LC50 Culex fatigans larvae (Culex fatigans larvae): 0.14 ppm
SR (synergistic ratio), Musca domestica SNAIDM (Musca domestica SNAIDM): 6.3
LD50 (Musca domestica SNAIDM): 108 mg/kg
Topical LD50, Musca domestica SNAIDM, pb (Musca domestica SNAIDM): 17.0 μg per g
SR (synergistic ratio), Musca domestica Rsp (Musca domestica Rsp): 1.6
LD50 (Musca domestica Rsp): 130 mg/kg
Topical LD50, Musca domestica Rsp, pb (Musca domestica Rsp): 82.5 μg per g
LC50 Anopheles albimanus larvae [3]: 0.038 ppm
SR (synergistic ratio), Phormia regina (Phormia regina): 1.8
LD50 (Phormia regina): 205 mg/kg
Topical LD50, Phormia regina, pb (Phormia regina): 115 μg per g

CSc1ccc(C(c2ccc(SC)cc2)C(Cl)(Cl)Cl)cc1 [methiochlor, 1,1,1-trichloro-2,2-bis-(p-methiophenyl) ethane]
biodegradability / attack by MFO enzymes of prior art compounds [1]: readily attacked by MFO enzymes
insecticidal activity of prior art compounds (insects [5]): considerably less insecticidal activity than DDT towards other species of insects

COc1ccc(C(c2ccc(OC)cc2)C(Cl)(Cl)Cl)cc1 [methoxychlor, 1,1,1-trichloro-,2,2-bis(p-methoxyphenyl)ethane]
biodegradability / attack by MFO enzymes of prior art compounds [1]: readily attacked by MFO enzymes
accumulation in animal tissues (animals): not generally accumulated in animal tissues
insecticidal activity of prior art compounds (insects [5]): considerably less insecticidal activity than DDT towards other species of insects

Cc1ccc(C(c2ccc(C)cc2)C(Cl)(Cl)Cl)cc1 [methylchlor, 1,1,1-trichloro-2,2-bis(p-methylphenyl)ethane]
insecticidal activity of prior art compounds (insects [5]): considerably less insecticidal activity than DDT towards other species of insects

Source: patent US3966824A, “P,P'-Disubstituted α-trichloromethylbenzylphenyl ethers” (University of Illinois Foundation, priority 1974, dated 1976)
